Assay results as given in the supplement of paper PMC10307832.

Columns and labels:
Assay in all cases: relative viability (nuclei count vs DMSO), 5 days (fraction); higher = more cells survive
Conditions in all cases: main component drawn
[1] = compound: CC1=C(N=C(N=C1N)[C@H](CC(=O)N)NC[C@@H](C(=O)N)N)C(=O)N[C@@H]([C@H](C2=CN=CN2)OC3C(C(C(C(O3)CO)O)O)OC4C(C(C(C(O4)CO)O)OC(=O)N)O)C(=O)N[C@H](C)[C@H]([C@H](C)C(=O)N[C@@H]([C@@H](C)O)C(=O)NCCC5=NC(=CS5)C6=NC(=CS6)C(=O)NCCC[S+](C)C)O [Bleomycin] + CS(=O)(=O)N1CCN(Cc2cc3nc(-c4cccc5[nH]ncc45)nc(N4CCOCC4)c3s2)CC1 [Pictilisib] (partner 1 µM)
Procedure, shortened: (§1)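 Cells from lung cancer lines were seeded into 1536-well plates and, one day later, dosed by pin tool. Treatments were either a single drug or a fixed dose of an anchor drug with five library-drug doses (not always all listed) in √10 steps. After 5 days, nuclei were stained in a one-step fixation (final 0.05% Triton X-100, 1% formaldehyde, 1 ug/ml Hoechst) and counted on 4× images, and relative viability is the treated-to-vehicle nuclei ratio, as the median of duplicate plates.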

[2] = compound: CC1=C(N=C(N=C1N)[C@H](CC(=O)N)NC[C@@H](C(=O)N)N)C(=O)N[C@@H]([C@H](C2=CN=CN2)OC3C(C(C(C(O3)CO)O)O)OC4C(C(C(C(O4)CO)O)OC(=O)N)O)C(=O)N[C@H](C)[C@H]([C@H](C)C(=O)N[C@@H]([C@@H](C)O)C(=O)NCCC5=NC(=CS5)C6=NC(=CS6)C(=O)NCCC[S+](C)C)O [Bleomycin] + COc1cccc2cc(-c3nc([C@H]4CC[C@H](C(=O)O)CC4)n4ncnc(N)c34)[nH]c12 [OSI-027] (partner 0.5 µM)
Procedure, shortened: as §1

[3] = compound: CC1=C(N=C(N=C1N)[C@H](CC(=O)N)NC[C@@H](C(=O)N)N)C(=O)N[C@@H]([C@H](C2=CN=CN2)OC3C(C(C(C(O3)CO)O)O)OC4C(C(C(C(O4)CO)O)OC(=O)N)O)C(=O)N[C@H](C)[C@H]([C@H](C)C(=O)N[C@@H]([C@@H](C)O)C(=O)NCCC5=NC(=CS5)C6=NC(=CS6)C(=O)NCCC[S+](C)C)O [Bleomycin] + Cc1cc(Nc2cc(N3CCN(C)CC3)nc(Sc3ccc(NC(=O)C4CC4)cc3)n2)n[nH]1 [Tozasertib] (partner 0.1 µM)
Procedure, shortened: as §1

[4] = compound: CC1=C(N=C(N=C1N)[C@H](CC(=O)N)NC[C@@H](C(=O)N)N)C(=O)N[C@@H]([C@H](C2=CN=CN2)OC3C(C(C(C(O3)CO)O)O)OC4C(C(C(C(O4)CO)O)OC(=O)N)O)C(=O)N[C@H](C)[C@H]([C@H](C)C(=O)N[C@@H]([C@@H](C)O)C(=O)NCCC5=NC(=CS5)C6=NC(=CS6)C(=O)NCCC[S+](C)C)O [Bleomycin] + C[C@]1(O)C[C@@H](c2nc(-c3ccc4ccc(-c5ccccc5)nc4c3)c3c(N)nccn32)C1 [Linsitinib] (partner 1 µM)
Procedure, shortened: as §1

Row | Cell Line | relative viability ([1]; first compound 0.01 µM) | relative viability ([1]; first compound 0.03162 µM) | relative viability ([1]; first compound 0.1 µM) | relative viability ([1]; first compound 0.3162 µM) | relative viability ([1]; first compound 1 µM) | relative viability ([2]; first compound 0.01 µM) | relative viability ([2]; first compound 0.03162 µM) | relative viability ([2]; first compound 0.1 µM) | relative viability ([2]; first compound 0.3162 µM) | relative viability ([2]; first compound 1 µM) | relative viability ([3]; first compound 0.01 µM) | relative viability ([3]; first compound 0.03162 µM) | relative viability ([3]; first compound 0.1 µM) | relative viability ([3]; first compound 0.3162 µM) | relative viability ([3]; first compound 1 µM) | relative viability ([4]; first compound 0.01 µM) | relative viability ([4]; first compound 0.03162 µM) | relative viability ([4]; first compound 0.1 µM) | relative viability ([4]; first compound 0.3162 µM) | relative viability ([4]; first compound 1 µM)
1 | HCC-15 | 0.685 | 0.693 | 0.627 | 0.199 | 0.219 | 0.645 | 0.612 | 0.533 | 0.182 | 0.152 | 0.308 | 0.343 | 0.303 | 0.148 | 0.153 | 0.793 | 0.804 | 0.763 | 0.418 | 0.288
2 | HCC-44 | 0.385 | 0.477 | 0.271 | 0.211 | 0.246 | 0.279 | 0.38 | 0.248 | 0.205 | 0.175 | 0.273 | 0.312 | 0.302 | 0.19 | 0.137 | 0.462 | 0.283 | 0.26 | 0.176 | 0.178
3 | HCC-78 | 0.201 | 0.213 | 0.204 | 0.199 | 0.159 | 0.38 | 0.348 | 0.309 | 0.311 | 0.29 | 0.335 | 0.356 | 0.357 | 0.269 | 0.355 | 0.488 | 0.343 | 0.343 | 0.282 | 0.179
4 | HCC-366 | 0.133 | 0.128 | 0.09 | 0.0658 | 0.0477 | 0.675 | 0.643 | 0.471 | 0.122 | 0.119 | 0.0825 | 0.11 | 0.0755 | 0.0502 | 0.0319 | 0.29 | 0.229 | 0.171 | 0.0412 | 0.0312
5 | HCC-827 | 0.921 | 0.787 | 0.916 | 0.512 | 0.399 | 0.71 | 0.81 | 0.6 | 0.562 | 0.193 | 0.419 | 0.453 | 0.332 | 0.311 | 0.205 | 0.943 | 1.02 | 0.88 | 0.666 | 0.308
6 | HOP-62 | 0.427 | 0.31 | 0.389 | 0.115 | 0.103 | 0.383 | 0.498 | 0.333 | 0.184 | 0.127 | 0.229 | 0.208 | 0.194 | 0.144 | 0.102 | 0.485 | 0.554 | 0.335 | 0.135 | 0.112
7 | IA-LM | 0.331 | 0.29 | 0.356 | 0.211 | 0.215 |  |  |  |  |  |  |  |  |  |  | 0.588 | 0.476 | 0.344 | 0.293 | 0.246
8 | LC-2-ad | 0.255 | 0.368 | 0.292 | 0.173 | 0.106 | 0.552 | 0.711 | 0.382 | 0.302 | 0.221 | 0.395 | 0.354 | 0.34 | 0.247 | 0.276 | 0.725 | 0.691 | 0.352 | 0.178 | 0.118
9 | NCI-H522 |  |  |  |  |  | 0.662 | 0.619 | 0.593 | 0.419 | 0.432 | 0.538 | 0.542 | 0.504 | 0.418 | 0.346 |  |  |  |  | 
10 | NCI-H1299 | 0.65 | 0.571 | 0.367 | 0.149 | 0.154 |  |  |  |  |  |  |  |  |  |  | 0.879 | 0.978 | 0.854 | 0.481 | 0.245
11 | NCI-H1563 | 0.608 | 0.698 | 0.623 | 0.574 | 0.533 | 0.67 | 0.806 | 0.657 | 0.577 | 0.581 |  |  |  |  |  | 0.919 | 0.891 | 0.749 | 0.642 | 0.623
12 | NCI-H1623 |  |  |  |  |  | 0.406 | 0.432 | 0.464 | 0.363 | 0.322 | 0.393 | 0.427 | 0.417 | 0.301 | 0.32 |  |  |  |  | 
13 | NCI-H1648 |  |  |  |  |  | 0.274 |  | 0.257 | 0.246 | 0.274 | 0.383 |  | 0.401 | 0.405 | 0.379 |  |  |  |  | 
14 | NCI-H1650 | 0.408 | 0.318 | 0.255 | 0.139 | 0.125 | 0.468 | 0.332 | 0.227 | 0.171 | 0.151 | 0.307 | 0.234 | 0.213 | 0.189 | 0.178 |  |  |  |  | 
15 | NCI-H1703 | 0.226 | 0.236 | 0.26 | 0.219 | 0.176 |  |  |  |  |  |  |  |  |  |  | 1.06 | 0.639 | 0.517 | 0.321 | 0.19
16 | NCI-H1792 | 0.301 | 0.231 | 0.217 | 0.102 | 0.122 | 0.728 | 0.863 | 0.649 | 0.459 | 0.338 |  |  |  |  |  | 0.515 | 0.484 | 0.281 | 0.202 | 0.189
17 | NCI-H2170 | 0.376 | 0.304 | 0.297 | 0.256 | 0.262 | 0.598 | 0.764 | 0.767 | 0.52 | 0.395 | 0.627 | 0.826 | 0.735 | 0.549 | 0.372 |  |  |  |  | 
18 | NCI-H2342 |  |  |  |  |  | 0.676 | 0.634 | 0.598 | 0.507 | 0.511 | 0.537 | 0.522 | 0.493 | 0.432 | 0.445 |  |  |  |  | 
19 | SW 900 |  |  |  |  |  | 0.428 | 0.336 | 0.425 | 0.15 | 0.134 | 0.507 | 0.467 | 0.341 | 0.208 | 0.174 |  |  |  |  | 
